Source: PMC10944877, “Identification of dihydromyricetin as a natural DNA methylation inhibitor with rejuvenating activity in human skin” (Frontiers in Aging, 2024)
pIC50: −log10 of the molar value.

Experiments:
[1] = biological target: T1, DNMT1 (Homo sapiens, UniProt P26358); experiment: biochemical DNMT activity quantification kit (Abcam), three […] pure preparations, n = […]
[2] = biological target: T1, DNMT1; experiment: scintillation proximity methylation assay (SPA) screen with purified DNMT1; IC50 in Supplementary Figure S1A; assay type: biochemical; design: full-length recombinant human DNMT1

T1 sequence (P26358 whole entry): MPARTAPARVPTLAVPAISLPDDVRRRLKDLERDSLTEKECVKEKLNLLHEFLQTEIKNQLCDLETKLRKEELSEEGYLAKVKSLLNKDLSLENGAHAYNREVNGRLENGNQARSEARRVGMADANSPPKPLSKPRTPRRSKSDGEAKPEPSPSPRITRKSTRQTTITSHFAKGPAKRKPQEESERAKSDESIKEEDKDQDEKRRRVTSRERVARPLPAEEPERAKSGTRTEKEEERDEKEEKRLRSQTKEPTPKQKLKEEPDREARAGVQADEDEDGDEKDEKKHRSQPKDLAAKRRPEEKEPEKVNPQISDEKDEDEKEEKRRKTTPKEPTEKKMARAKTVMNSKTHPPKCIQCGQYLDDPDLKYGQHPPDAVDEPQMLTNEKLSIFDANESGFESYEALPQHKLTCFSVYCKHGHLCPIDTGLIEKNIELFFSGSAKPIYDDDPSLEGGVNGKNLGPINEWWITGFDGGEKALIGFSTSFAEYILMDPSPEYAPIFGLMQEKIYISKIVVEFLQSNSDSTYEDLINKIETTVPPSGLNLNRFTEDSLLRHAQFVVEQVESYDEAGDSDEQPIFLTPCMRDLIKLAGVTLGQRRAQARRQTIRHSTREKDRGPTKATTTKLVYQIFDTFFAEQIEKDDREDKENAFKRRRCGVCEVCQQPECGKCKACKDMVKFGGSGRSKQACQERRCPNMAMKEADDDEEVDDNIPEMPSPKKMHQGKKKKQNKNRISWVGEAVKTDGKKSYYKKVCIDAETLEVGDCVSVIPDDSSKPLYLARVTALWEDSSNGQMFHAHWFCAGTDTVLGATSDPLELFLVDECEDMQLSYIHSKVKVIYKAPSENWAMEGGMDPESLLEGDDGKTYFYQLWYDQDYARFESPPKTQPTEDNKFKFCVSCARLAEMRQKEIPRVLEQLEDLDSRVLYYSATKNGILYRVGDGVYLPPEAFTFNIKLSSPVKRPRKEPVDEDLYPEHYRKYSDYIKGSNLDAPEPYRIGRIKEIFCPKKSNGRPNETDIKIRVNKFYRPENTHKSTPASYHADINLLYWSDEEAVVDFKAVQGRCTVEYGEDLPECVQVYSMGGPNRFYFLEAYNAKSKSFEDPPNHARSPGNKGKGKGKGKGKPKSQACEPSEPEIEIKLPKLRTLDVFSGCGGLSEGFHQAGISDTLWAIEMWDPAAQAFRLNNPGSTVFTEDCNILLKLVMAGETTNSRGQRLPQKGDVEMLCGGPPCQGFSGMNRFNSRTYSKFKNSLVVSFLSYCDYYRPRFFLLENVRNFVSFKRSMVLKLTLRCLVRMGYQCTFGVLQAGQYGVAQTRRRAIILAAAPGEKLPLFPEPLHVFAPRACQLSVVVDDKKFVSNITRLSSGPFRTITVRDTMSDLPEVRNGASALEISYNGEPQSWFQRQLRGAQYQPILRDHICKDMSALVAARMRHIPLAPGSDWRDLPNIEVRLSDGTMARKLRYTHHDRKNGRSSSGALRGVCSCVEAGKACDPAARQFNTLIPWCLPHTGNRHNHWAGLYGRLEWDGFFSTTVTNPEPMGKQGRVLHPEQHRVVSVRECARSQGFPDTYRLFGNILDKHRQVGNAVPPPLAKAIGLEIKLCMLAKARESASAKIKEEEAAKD

| Compound | biochemical DNMT activity quantification kit (Abcam), three >95% pure preparatio [1] | pIC50 [2] |
| --- | --- | --- |
| O=C1c2c(O)cc(O)cc2O[C@H](c2cc(O)c(O)c(O)c2)[C@H]1O [DHM, 3,3′,4′,5,5’,7-hexahydroxy-2,3-dihydroflavanonol] | DNMT1 inhibitory activity for DHM in the similar concentration range like myricetin (Figure 1D; Supplementary Figure S1B) |  |
| O=c1c(O)c(-c2cc(O)c(O)c(O)c2)oc2cc(O)cc(O)c12 [Myr, myricetin] |  | 4.36 |
